Data on seven molecules can be found in US12419902B2, “Anti-viral and anti-tumoral compounds” (priority 2019, dated 2025).

In brackets after ≈: the same amount, converted by molar mass.

The nature of data set [1]: in vitro. As to conditions: human.
A further data set relates to Influenza A (H1N1). Kind of data set: microbe, parasite or virus in culture. It counts as cell-based.
For a further data set, the system named is Influenza A (H5N1). Description: microbe, parasite or virus in culture. It counts as cell-based.
In a further data set the test system is Influenza B. Kind of data set: microbe, parasite or virus in culture. Type of data set: cell-based.
Data set [2] relates to Zika virus. Type of data set: cell-based.
Data set [3] is described as follows: in vitro. The conditions noted are these: African green monkey.
Another data set relates to enterovirus-68 (EV-68). It counts as cell-based.
The subject of data set [4] is Zika virus. The conditions noted are these: nucleoside applied to cells, phosphorylated to ddhCTP; cited from earlier work.
For data set [5], the system named is Rift Valley fever virus (RVFV). Description: microbe, parasite or virus in culture. Type of data set: cell-based. As to conditions: Vero 76.
The next data set relates to RSV. Description: microbe, parasite or virus in culture. It counts as cell-based. The conditions noted are these: human respiratory syncytial virus, MA104.

With `CCOC(=O)c1ccc(OCCC2CCN(c3ccc(C)nn3)CC2)cc1` [Pirodavir], in “in vitro [1]”, the CC50 was 4.3 µg/mL (≈ 11.6 µM).
As to `O=c1ccn([C@@H]2OC(CO)=C[C@H]2O)c(=O)[nH]1` [AB21649], the “antiviral activity (in words)” value in the data set on Influenza A (H1N1), in the data set with Influenza A (H5N1) and in the data set on Influenza B was “exhibits antiviral activity” throughout.
Regarding `C#C[C@@]1(O)[C@H](O)[C@@H](CO)O[C@H]1n1ccc2c(N)ncnc21` [NITD008], in the data set with Zika virus [2], the EC50 stood at 1.8 µg/mL (≈ 6.2 µM).
With `Nc1nc2c(ncn2[C@@H]2OC(CO)=CC2O)c(=O)[nH]1` (stereo partly drawn) [AB21651], the “antiviral activity (in words)” value in the data set with Influenza A (H1N1) and with Influenza A (H5N1) was “exhibits antiviral activity” throughout.
`CC(C)S(=O)(=O)n1c(N)nc2ccc(/C(=N/O)c3ccccc3)cc21` [Enviroxime] came in with a CC50 in “in vitro [3]” of 3.3 µg/mL (≈ 9.21 µM).
As for `Nc1ccn([C@@H]2OC(CO)=C[C@H]2O)c(=O)n1` [AB21650, 3′-deoxy-3′,4′-didehydro cytidine], the “antiviral activity (in words)” value in the data set with enterovirus-68 (EV-68) was “exhibits some activity”. Moreover, the “replication of Zika virus” value in the data set with Zika virus [4] is “directly inhibit replication of Zika virus”.
For `NC(=O)c1ncn([C@@H]2O[C@H](CO)[C@@H](O)[C@H]2O)n1` [Ribavirin], the EC50 is 14 µg/mL (≈ 57.3 µM) in data set [5]; 4.6 µg/mL (≈ 18.8 µM) in the data set on Influenza A (H1N1) (Influenza A virus, H1N1, MDCK); 1.8 µg/mL (≈ 7.37 µM) in the data set with Influenza A (H5N1) (Influenza A virus, H5N1, MDCK); 1.4 µg/mL (≈ 5.73 µM) with Influenza B (Influenza B virus, MDCK); 7.3 µg/mL (≈ 29.9 µM) in the data set on RSV.

One may read the EC50 as the midpoint of the concentration-response curve.
